From PubChem BioAssay (NCI)
Where “and” joins values, the source holds several entries; their conditions need not be identical. Equal entries are not always repeated.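 96-well plates; 48 h exposure; 5 concentrations. Endpoints by linear interpolation between flanking doses. Not reached: highest tested concentration assigned. GI50 marks 50% less growth. TGI denotes the concentration required for complete inhibition of growth.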

Columns and labels:
Assay in all cases: NCI tumour cell line growth inhibition, 48 h
SNB-19 CNS = tested on: SNB-19 CNS
RPMI-8226 leukemia = tested on: RPMI-8226 leukemia
P388 leukemia = tested on: P388 leukemia
RXF 393 renal = tested on: RXF 393 renal
NCI-H522 lung = tested on: NCI-H522 lung
UACC-62 melanoma = tested on: UACC-62 melanoma
DMS 114 small cell lung = tested on: DMS 114 small cell lung
MCF7 breast = tested on: MCF7 breast
M14 melanoma = tested on: M14 melanoma
OVCAR-8 ovarian = tested on: OVCAR-8 ovarian
DMS 273 small cell lung = tested on: DMS 273 small cell lung
KM20L2 colon = tested on: KM20L2 colon
SK-MEL-2 melanoma = tested on: SK-MEL-2 melanoma
SF-268 CNS = tested on: SF-268 CNS
SN12K1 renal = tested on: SN12K1 renal
KM12 colon = tested on: KM12 colon
LOX IMVI melanoma = tested on: LOX IMVI melanoma
HOP-92 NSCLC = tested on: HOP-92 NSCLC
EKVX NSCLC = tested on: EKVX NSCLC
SW-620 colon = tested on: SW-620 colon
M19-MEL melanoma = tested on: M19-MEL melanoma
NCI-H23 lung = tested on: NCI-H23 lung
HT29 colon = tested on: HT29 colon
TK-10 renal = tested on: TK-10 renal
SNB-75 CNS = tested on: SNB-75 CNS
SF-539 CNS = tested on: SF-539 CNS
HCT-15 colon = tested on: HCT-15 colon
DLD-1 colon = tested on: DLD-1 colon
A498 renal = tested on: A498 renal
OVCAR-5 ovarian = tested on: OVCAR-5 ovarian

CCOC(=O)Nc1ccc2c(c1)N(C(=O)CCN(CC)CC)c1ccccc1S2
GI50 (SNB-19 CNS): 13.5 µM
TGI (SNB-19 CNS): 41.1 µM
GI50 (RPMI-8226 leukemia): 13 µM
TGI (RPMI-8226 leukemia): 51 µM and 47.5 µM
TGI (P388 leukemia): 32.2 µM
GI50 (RXF 393 renal): 15.4 µM
TGI (RXF 393 renal): 64.1 µM and 59.5 µM
GI50 (NCI-H522 lung): 17 µM
TGI (NCI-H522 lung): 37.1 µM and 167 µM
GI50 (UACC-62 melanoma): 46.7 µM
TGI (UACC-62 melanoma): 52.8 µM and 112 µM
GI50 (DMS 114 small cell lung): 36.2 µM
TGI (DMS 114 small cell lung): 40.6 µM and 99.6 µM
GI50 (MCF7 breast): 31.3 µM
TGI (MCF7 breast): > 94.3 µM
TGI (M14 melanoma): 48.6 µM
GI50 (OVCAR-8 ovarian): 1.51 µM
TGI (OVCAR-8 ovarian): 2.5 µM
TGI (DMS 273 small cell lung): > 68.8 µM and 77.9 µM
GI50 (KM20L2 colon): 13.9 µM
TGI (KM20L2 colon): 38.7 µM and 39.7 µM
GI50 (SK-MEL-2 melanoma): 30.5 µM
TGI (SK-MEL-2 melanoma): 43.6 µM and 83.7 µM
GI50 (SF-268 CNS): 55 µM
TGI (SF-268 CNS): > 74.6 µM and 128 µM
TGI (SN12K1 renal): 95.3 µM
GI50 (KM12 colon): 35.9 µM
TGI (KM12 colon): 24.6 µM and 110 µM
TGI (LOX IMVI melanoma): 37.6 µM and 67 µM
GI50 (HOP-92 NSCLC): 14.2 µM
TGI (HOP-92 NSCLC): 67.8 µM and 73.5 µM
GI50 (EKVX NSCLC): 74.2 µM
TGI (EKVX NSCLC): 141 µM
GI50 (SW-620 colon): 52.5 µM
TGI (SW-620 colon): 59.3 µM and 122 µM
GI50 (M19-MEL melanoma): 56.2 µM
TGI (M19-MEL melanoma): > 71.1 µM and 124 µM
GI50 (NCI-H23 lung): 36.4 µM
TGI (NCI-H23 lung): > 90.5 µM and 114 µM
GI50 (HT29 colon): 29.6 µM
TGI (HT29 colon): 33.9 µM and 96.4 µM
TGI (TK-10 renal): 76.6 µM
GI50 (SNB-75 CNS): 11.7 µM
TGI (SNB-75 CNS): 39.2 µM and 62.7 µM
GI50 (SF-539 CNS): 12.7 µM
TGI (SF-539 CNS): 48.5 µM and 43.5 µM
GI50 (HCT-15 colon): 35.7 µM
TGI (HCT-15 colon): > 79.5 µM and 99.4 µM
GI50 (DLD-1 colon): 32.9 µM
TGI (DLD-1 colon): > 87.6 µM and 105 µM
GI50 (A498 renal): 33.3 µM
TGI (A498 renal): 58.9 µM and 99.7 µM
GI50 (OVCAR-5 ovarian): 101 µM
